# Measurements from patent US4442044A, “Process for preparing monoesters and diesters of N-alkyl substituted amino methyl phosphonic acid” (priority 1983, dated 1984).
# Key:
# Assay in all cases: post-emergent herbicidal activity, greenhouse
# Assay type in all cases: in vivo
# Barnyardgrass = system: Barnyardgrass
# Method in brief: (§1)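 Post-emergence foliar spray at tabulated application rates, using aliquots of a 1.0% stock in acetone, THF or water plus ~0.4% emulsifier, applied to 2–3-week-old greenhouse plants. Plant injury was rated relative to controls roughly two and four weeks after treatment.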
# Canada Thistle = details: Table I
# Method in brief: as §1
# Cocklebur = system: Cocklebur
# Method in brief: as §1
# Crabgrass = details: Table II
# Method in brief: as §1
# Downy Brome = system: Downy Brome
# Method in brief: as §1
# Hemp Sesbania = details: Table II
# Method in brief: as §1
# Johnsongrass = details: Table I
# Method in brief: as §1
# Lambsquarters = system: Lambsquarters
# Method in brief: as §1
# Morningglory = system: Morningglory
# Method in brief: as §1
# Panicum Spp = details: Table II
# Method in brief: as §1
# Quackgrass = details: Table I
# Method in brief: as §1
# Rice = details: Table II
# Method in brief: as §1
# Smartweed = system: Smartweed
# Method in brief: as §1
# Sorghum = details: Table II
# Method in brief: as §1
# Soybean = details: Table II
# Method in brief: as §1
# Sugar Beet = details: Table II
# Method in brief: as §1
# Velvetleaf = system: Velvetleaf
# Method in brief: as §1
# Wheat = details: Table II
# Method in brief: as §1
# Wild Buckwheat = details: Table II
# Method in brief: as §1
# Yellow Nutsedge = details: Table I
# Method in brief: as §1
smiles,measurement,setting,value
"CCOC(=O)CNCP(=O)(OCC(=O)OCC)OCC(=O)OCC [Example 13, glycine, N-[bis(ethoxycarbonylmethoxy)phosphinylmethyl]-, ethyl ester]",post-emergent herbicidal activity index,"Barnyardgrass; Table I, 2 WAT, 5.6 kg/h",0 (0-24% control)
same,post-emergent herbicidal activity index,"Barnyardgrass; Table I, 2 WAT, 11.2 kg/h",0 (0-24% control)
same,post-emergent herbicidal activity index,"Barnyardgrass; Table II, 2 WAT, 0.28 kg/h",0 (0-24% control)
same,post-emergent herbicidal activity index,"Barnyardgrass; Table II, 2 WAT, 1.12 kg/h",0 (0-24% control)
same,post-emergent herbicidal activity index,"Barnyardgrass; Table II, 2 WAT, 5.6 kg/h",1 (25-49% control)
same,post-emergent herbicidal activity index,"Canada Thistle; 2 WAT, 5.6 kg/h",0 (0-24% control)
same,post-emergent herbicidal activity index,"Canada Thistle; 2 WAT, 11.2 kg/h",0 (0-24% control)
same,post-emergent herbicidal activity index,"Cocklebur; Table I, 2 WAT, 5.6 kg/h",0 (0-24% control)
same,post-emergent herbicidal activity index,"Cocklebur; Table I, 2 WAT, 11.2 kg/h",0 (0-24% control)
same,post-emergent herbicidal activity index,"Cocklebur; Table II, 2 WAT, 0.28 kg/h",0 (0-24% control)
same,post-emergent herbicidal activity index,"Cocklebur; Table II, 2 WAT, 1.12 kg/h",0 (0-24% control)
same,post-emergent herbicidal activity index,"Cocklebur; Table II, 2 WAT, 5.6 kg/h",1 (25-49% control)
same,post-emergent herbicidal activity index,"Crabgrass; 2 WAT, 0.28 kg/h",0 (0-24% control)
same,post-emergent herbicidal activity index,"Crabgrass; 2 WAT, 1.12 kg/h",0 (0-24% control)
same,post-emergent herbicidal activity index,"Crabgrass; 2 WAT, 5.6 kg/h",3 (75-99% control)
same,post-emergent herbicidal activity index,"Downy Brome; Table I, 2 WAT, 5.6 kg/h",0 (0-24% control)
same,post-emergent herbicidal activity index,"Downy Brome; Table I, 2 WAT, 11.2 kg/h",0 (0-24% control)
same,post-emergent herbicidal activity index,"Downy Brome; Table II, 2 WAT, 0.28 kg/h",0 (0-24% control)
same,post-emergent herbicidal activity index,"Downy Brome; Table II, 2 WAT, 1.12 kg/h",0 (0-24% control)
same,post-emergent herbicidal activity index,"Downy Brome; Table II, 2 WAT, 5.6 kg/h",0 (0-24% control)
same,post-emergent herbicidal activity index,"Hemp Sesbania; 2 WAT, 0.28 kg/h",0 (0-24% control)
same,post-emergent herbicidal activity index,"Hemp Sesbania; 2 WAT, 1.12 kg/h",1 (25-49% control)
same,post-emergent herbicidal activity index,"Johnsongrass; 2 WAT, 5.6 kg/h",0 (0-24% control)
same,post-emergent herbicidal activity index,"Johnsongrass; 2 WAT, 11.2 kg/h",0 (0-24% control)
same,post-emergent herbicidal activity index,"Lambsquarters; Table I, 2 WAT, 11.2 kg/h",0 (0-24% control)
same,post-emergent herbicidal activity index,"Lambsquarters; Table II, 2 WAT, 1.12 kg/h",0 (0-24% control)
same,post-emergent herbicidal activity index,"Morningglory; Table I, 2 WAT, 5.6 kg/h",0 (0-24% control)
same,post-emergent herbicidal activity index,"Morningglory; Table I, 2 WAT, 11.2 kg/h",1 (25-49% control)
same,post-emergent herbicidal activity index,"Morningglory; Table II, 2 WAT, 0.28 kg/h",0 (0-24% control)
same,post-emergent herbicidal activity index,"Morningglory; Table II, 2 WAT, 1.12 kg/h",0 (0-24% control)
same,post-emergent herbicidal activity index,"Morningglory; Table II, 2 WAT, 5.6 kg/h",1 (25-49% control)
same,post-emergent herbicidal activity index,"Panicum Spp; 2 WAT, 0.28 kg/h",0 (0-24% control)
same,post-emergent herbicidal activity index,"Panicum Spp; 2 WAT, 1.12 kg/h",0 (0-24% control)
same,post-emergent herbicidal activity index,"Panicum Spp; 2 WAT, 5.6 kg/h",0 (0-24% control)
same,post-emergent herbicidal activity index,"Quackgrass; 2 WAT, 5.6 kg/h",1 (25-49% control)
same,post-emergent herbicidal activity index,"Quackgrass; 2 WAT, 11.2 kg/h",0 (0-24% control)
same,post-emergent herbicidal activity index,"Rice; 2 WAT, 0.28 kg/h",0 (0-24% control)
same,post-emergent herbicidal activity index,"Rice; 2 WAT, 1.12 kg/h",0 (0-24% control)
same,post-emergent herbicidal activity index,"Rice; 2 WAT, 5.6 kg/h",0 (0-24% control)
same,post-emergent herbicidal activity index,"Smartweed; Table I, 2 WAT, 5.6 kg/h",0 (0-24% control)
same,post-emergent herbicidal activity index,"Smartweed; Table I, 2 WAT, 11.2 kg/h",0 (0-24% control)
same,post-emergent herbicidal activity index,"Smartweed; Table II, 2 WAT, 0.28 kg/h",0 (0-24% control)
same,post-emergent herbicidal activity index,"Smartweed; Table II, 2 WAT, 1.12 kg/h",0 (0-24% control)
same,post-emergent herbicidal activity index,"Smartweed; Table II, 2 WAT, 5.6 kg/h",1 (25-49% control)
same,post-emergent herbicidal activity index,"Sorghum; 2 WAT, 0.28 kg/h",0 (0-24% control)
same,post-emergent herbicidal activity index,"Sorghum; 2 WAT, 1.12 kg/h",0 (0-24% control)
same,post-emergent herbicidal activity index,"Sorghum; 2 WAT, 5.6 kg/h",1 (25-49% control)
same,post-emergent herbicidal activity index,"Soybean; 2 WAT, 0.28 kg/h",0 (0-24% control)
same,post-emergent herbicidal activity index,"Soybean; 2 WAT, 1.12 kg/h",0 (0-24% control)
same,post-emergent herbicidal activity index,"Soybean; 2 WAT, 5.6 kg/h",1 (25-49% control)
same,post-emergent herbicidal activity index,"Sugar Beet; 2 WAT, 0.28 kg/h",0 (0-24% control)
same,post-emergent herbicidal activity index,"Sugar Beet; 2 WAT, 1.12 kg/h",0 (0-24% control)
same,post-emergent herbicidal activity index,"Sugar Beet; 2 WAT, 5.6 kg/h",0 (0-24% control)
same,post-emergent herbicidal activity index,"Velvetleaf; Table I, 2 WAT, 5.6 kg/h",0 (0-24% control)
same,post-emergent herbicidal activity index,"Velvetleaf; Table I, 2 WAT, 11.2 kg/h",0 (0-24% control)
same,post-emergent herbicidal activity index,"Velvetleaf; Table II, 2 WAT, 0.28 kg/h",0 (0-24% control)
same,post-emergent herbicidal activity index,"Velvetleaf; Table II, 2 WAT, 1.12 kg/h",0 (0-24% control)
same,post-emergent herbicidal activity index,"Velvetleaf; Table II, 2 WAT, 5.6 kg/h",1 (25-49% control)
same,post-emergent herbicidal activity index,"Wheat; 2 WAT, 0.28 kg/h",0 (0-24% control)
same,post-emergent herbicidal activity index,"Wheat; 2 WAT, 1.12 kg/h",0 (0-24% control)
same,post-emergent herbicidal activity index,"Wheat; 2 WAT, 5.6 kg/h",2 (50-74% control)
same,post-emergent herbicidal activity index,"Wild Buckwheat; 2 WAT, 0.28 kg/h",0 (0-24% control)
same,post-emergent herbicidal activity index,"Wild Buckwheat; 2 WAT, 1.12 kg/h",0 (0-24% control)
same,post-emergent herbicidal activity index,"Wild Buckwheat; 2 WAT, 5.6 kg/h",0 (0-24% control)
same,post-emergent herbicidal activity index,"Yellow Nutsedge; 2 WAT, 5.6 kg/h",0 (0-24% control)
same,post-emergent herbicidal activity index,"Yellow Nutsedge; 2 WAT, 11.2 kg/h",0 (0-24% control)
"CCOC(=O)CNCP(=O)(OC(C)CC(=O)OCC)OC(C)CC(=O)OCC (stereo not drawn) [Example 15, butanoic acid, 3,3'-[[[[(2-ethoxy-2-oxoethyl]amino]methyl]phospinylidene]bis-(oxy)]bis-, diethyl ester]",post-emergent herbicidal activity index,"Barnyardgrass; Table I, 2 WAT, 5.6 kg/h",0 (0-24% control)
same,post-emergent herbicidal activity index,"Barnyardgrass; Table I, 4 WAT, 11.2 kg/h",3 (75-99% control)
same,post-emergent herbicidal activity index,"Barnyardgrass; Table II, 2 WAT, 1.12 kg/h",0 (0-24% control)
same,post-emergent herbicidal activity index,"Barnyardgrass; Table II, 4 WAT, 5.6 kg/h",0 (0-24% control)
same,post-emergent herbicidal activity index,"Canada Thistle; 2 WAT, 5.6 kg/h",0 (0-24% control)
same,post-emergent herbicidal activity index,"Canada Thistle; 4 WAT, 11.2 kg/h",0 (0-24% control)
same,post-emergent herbicidal activity index,"Cocklebur; Table I, 2 WAT, 5.6 kg/h",0 (0-24% control)
same,post-emergent herbicidal activity index,"Cocklebur; Table I, 4 WAT, 11.2 kg/h",1 (25-49% control)
same,post-emergent herbicidal activity index,"Cocklebur; Table II, 2 WAT, 1.12 kg/h",0 (0-24% control)
same,post-emergent herbicidal activity index,"Cocklebur; Table II, 4 WAT, 5.6 kg/h",0 (0-24% control)
same,post-emergent herbicidal activity index,"Crabgrass; 2 WAT, 1.12 kg/h",0 (0-24% control)
same,post-emergent herbicidal activity index,"Crabgrass; 4 WAT, 5.6 kg/h",2 (50-74% control)
same,post-emergent herbicidal activity index,"Downy Brome; Table I, 2 WAT, 5.6 kg/h",0 (0-24% control)
same,post-emergent herbicidal activity index,"Downy Brome; Table I, 4 WAT, 11.2 kg/h",0 (0-24% control)
same,post-emergent herbicidal activity index,"Downy Brome; Table II, 2 WAT, 1.12 kg/h",0 (0-24% control)
same,post-emergent herbicidal activity index,"Downy Brome; Table II, 4 WAT, 5.6 kg/h",0 (0-24% control)
same,post-emergent herbicidal activity index,"Hemp Sesbania; 2 WAT, 1.12 kg/h",0 (0-24% control)
same,post-emergent herbicidal activity index,"Hemp Sesbania; 4 WAT, 5.6 kg/h",0 (0-24% control)
same,post-emergent herbicidal activity index,"Johnsongrass; 2 WAT, 5.6 kg/h",0 (0-24% control)
same,post-emergent herbicidal activity index,"Johnsongrass; 4 WAT, 11.2 kg/h",0 (0-24% control)
same,post-emergent herbicidal activity index,"Lambsquarters; Table I, 2 WAT, 5.6 kg/h",0 (0-24% control)
same,post-emergent herbicidal activity index,"Lambsquarters; Table I, 4 WAT, 11.2 kg/h",0 (0-24% control)
same,post-emergent herbicidal activity index,"Lambsquarters; Table II, 2 WAT, 1.12 kg/h",0 (0-24% control)
same,post-emergent herbicidal activity index,"Lambsquarters; Table II, 4 WAT, 5.6 kg/h",1 (25-49% control)
same,post-emergent herbicidal activity index,"Morningglory; Table I, 2 WAT, 5.6 kg/h",0 (0-24% control)
same,post-emergent herbicidal activity index,"Morningglory; Table I, 4 WAT, 11.2 kg/h",1 (25-49% control)
same,post-emergent herbicidal activity index,"Morningglory; Table II, 2 WAT, 1.12 kg/h",0 (0-24% control)
same,post-emergent herbicidal activity index,"Morningglory; Table II, 4 WAT, 5.6 kg/h",1 (25-49% control)
same,post-emergent herbicidal activity index,"Panicum Spp; 2 WAT, 1.12 kg/h",0 (0-24% control)
same,post-emergent herbicidal activity index,"Panicum Spp; 4 WAT, 5.6 kg/h",1 (25-49% control)
same,post-emergent herbicidal activity index,"Quackgrass; 2 WAT, 5.6 kg/h",0 (0-24% control)
same,post-emergent herbicidal activity index,"Quackgrass; 4 WAT, 11.2 kg/h",1 (25-49% control)
same,post-emergent herbicidal activity index,"Rice; 2 WAT, 1.12 kg/h",0 (0-24% control)
same,post-emergent herbicidal activity index,"Rice; 4 WAT, 5.6 kg/h",0 (0-24% control)
same,post-emergent herbicidal activity index,"Smartweed; Table I, 2 WAT, 5.6 kg/h",0 (0-24% control)
same,post-emergent herbicidal activity index,"Smartweed; Table I, 4 WAT, 11.2 kg/h",0 (0-24% control)
same,post-emergent herbicidal activity index,"Smartweed; Table II, 2 WAT, 1.12 kg/h",0 (0-24% control)
same,post-emergent herbicidal activity index,"Smartweed; Table II, 4 WAT, 5.6 kg/h",0 (0-24% control)
same,post-emergent herbicidal activity index,"Sorghum; 2 WAT, 1.12 kg/h",0 (0-24% control)
same,post-emergent herbicidal activity index,"Sorghum; 4 WAT, 5.6 kg/h",0 (0-24% control)
same,post-emergent herbicidal activity index,"Soybean; 2 WAT, 1.12 kg/h",0 (0-24% control)
same,post-emergent herbicidal activity index,"Soybean; 4 WAT, 5.6 kg/h",1 (25-49% control)
same,post-emergent herbicidal activity index,"Sugar Beet; 2 WAT, 1.12 kg/h",0 (0-24% control)
same,post-emergent herbicidal activity index,"Sugar Beet; 4 WAT, 5.6 kg/h",0 (0-24% control)
same,post-emergent herbicidal activity index,"Velvetleaf; Table I, 2 WAT, 5.6 kg/h",0 (0-24% control)
same,post-emergent herbicidal activity index,"Velvetleaf; Table I, 4 WAT, 11.2 kg/h",0 (0-24% control)
same,post-emergent herbicidal activity index,"Velvetleaf; Table II, 2 WAT, 1.12 kg/h",0 (0-24% control)
same,post-emergent herbicidal activity index,"Velvetleaf; Table II, 4 WAT, 5.6 kg/h",0 (0-24% control)
same,post-emergent herbicidal activity index,"Wheat; 2 WAT, 1.12 kg/h",0 (0-24% control)
same,post-emergent herbicidal activity index,"Wheat; 4 WAT, 5.6 kg/h",1 (25-49% control)
same,post-emergent herbicidal activity index,"Wild Buckwheat; 2 WAT, 1.12 kg/h",0 (0-24% control)
same,post-emergent herbicidal activity index,"Wild Buckwheat; 4 WAT, 5.6 kg/h",0 (0-24% control)
same,post-emergent herbicidal activity index,"Yellow Nutsedge; 2 WAT, 5.6 kg/h",0 (0-24% control)
same,post-emergent herbicidal activity index,"Yellow Nutsedge; 4 WAT, 11.2 kg/h",1 (25-49% control)
